Results published in PMC7673538 (PLoS Biology, 2020).

tested on: CV-A24; test: microbe, parasite or virus in culture; assay type: cell-based, coxsackievirus A24; conditions: Enterovirus C, CVA24, HeLa R19, read-out: EC50 CV-A24

**Q.** With `COc1ccc(N(Cc2ccc(F)cc2)C(=O)c2ccc[nH]2)cc1` [Compound 5c, N-(4-fluorobenzyl)-N-(4-methoxyphenyl)-1H-pyrrole-2-carboxamide] as the compound, how does the EC50 read?
**A.** The EC50 was > 30 µM.

tested on: CV-B3; test: microbe, parasite or virus in culture; assay type: cell-based, coxsackievirus B3; conditions: Enterovirus B, CVB3, HeLa

**Q.** Which EC50 does the source give for `COc1ccc(N(Cc2ccc(F)cc2)C(=O)c2ccc[nH]2)cc1` [Compound 5c, N-(4-fluorobenzyl)-N-(4-methoxyphenyl)-1H-pyrrole-2-carboxamide] here?
**A.** Its EC50 is 4.82 ± 0.14 µM.

same assay, conditions: Enterovirus B, CVB3, HeLa R19, read-out: CV-B3 EC50 Average

**Q.** Which EC50 does the source give for `COc1ccc(N(Cc2ccc(F)cc2)C(=O)c2ccc[nH]2)cc1` [Compound 5c, N-(4-fluorobenzyl)-N-(4-methoxyphenyl)-1H-pyrrole-2-carboxamide] here?
**A.** Its EC50 is 3.01 µM.

same assay, conditions: Enterovirus B, CVB3, HeLa R19, read-out: CV-B3 Exp 1 EC50

**Q.** For `COc1ccc(N(Cc2ccc(F)cc2)C(=O)c2ccc[nH]2)cc1` [Compound 5c, N-(4-fluorobenzyl)-N-(4-methoxyphenyl)-1H-pyrrole-2-carboxamide], which EC50 is on record?
**A.** Its EC50 is 3.21 µM.

same assay, conditions: Enterovirus B, CVB3, HeLa R19, read-out: CV-B3 Exp2 EC50

**Q.** With `COc1ccc(N(Cc2ccc(F)cc2)C(=O)c2ccc[nH]2)cc1` [Compound 5c, N-(4-fluorobenzyl)-N-(4-methoxyphenyl)-1H-pyrrole-2-carboxamide] as the compound, how does the EC50 read?
**A.** Its EC50 is 2.81 µM.

same assay, conditions: Enterovirus B, CVB3, HeLa R19, read-out: EC50 HelaR19 Average

**Q.** With `COc1ccc(N(Cc2ccc(F)cc2)C(=O)c2ccc[nH]2)cc1` [Compound 5c, N-(4-fluorobenzyl)-N-(4-methoxyphenyl)-1H-pyrrole-2-carboxamide] as the compound, how does the EC50 read?
**A.** The EC50 was 4.81 µM.

same assay, conditions: Enterovirus B, CVB3, HeLa R19, read-out: Exp 1 EC50 HelaR19

**Q.** With `COc1ccc(N(Cc2ccc(F)cc2)C(=O)c2ccc[nH]2)cc1` [Compound 5c, N-(4-fluorobenzyl)-N-(4-methoxyphenyl)-1H-pyrrole-2-carboxamide] as the compound, how does the EC50 read?
**A.** The EC50 was 4.95 µM.

same assay, conditions: Enterovirus B, CVB3, HeLa R19, read-out: Exp 2 EC50 HelaR19

**Q.** For `COc1ccc(N(Cc2ccc(F)cc2)C(=O)c2ccc[nH]2)cc1` [Compound 5c, N-(4-fluorobenzyl)-N-(4-methoxyphenyl)-1H-pyrrole-2-carboxamide], which EC50 is on record?
**A.** Its EC50 is 4.68 µM.

tested on: CV-B3; test: microbe, parasite or virus in culture; assay type: cell-based, coxsackievirus B3; conditions: Enterovirus B, CVB3, HAP1, read-out: EC50 Hap1 Average

**Q.** Which EC50 does the source give for `COc1ccc(N(Cc2ccc(F)cc2)C(=O)c2ccc[nH]2)cc1` [Compound 5c, N-(4-fluorobenzyl)-N-(4-methoxyphenyl)-1H-pyrrole-2-carboxamide] here?
**A.** Its EC50 is 2520 nM.

same assay, conditions: Enterovirus B, CVB3, HAP1, read-out: Exp 1 EC50 Hap1

**Q.** Which EC50 does the source give for `COc1ccc(N(Cc2ccc(F)cc2)C(=O)c2ccc[nH]2)cc1` [Compound 5c, N-(4-fluorobenzyl)-N-(4-methoxyphenyl)-1H-pyrrole-2-carboxamide] here?
**A.** Its EC50 is 2050 nM.

same assay, conditions: Enterovirus B, CVB3, HAP1, read-out: Exp 2 EC50 Hap1

**Q.** With `COc1ccc(N(Cc2ccc(F)cc2)C(=O)c2ccc[nH]2)cc1` [Compound 5c, N-(4-fluorobenzyl)-N-(4-methoxyphenyl)-1H-pyrrole-2-carboxamide] as the compound, how does the EC50 read?
**A.** The EC50 was 2990 nM.

tested on: HRV-A2; test: microbe, parasite or virus in culture; assay type: cell-based, human rhinovirus; conditions: Human rhinovirus sp., HRVA2, HeLa R19, read-out: EC50 HRV-A2

**Q.** With `COc1ccc(N(Cc2ccc(F)cc2)C(=O)c2ccc[nH]2)cc1` [Compound 5c, N-(4-fluorobenzyl)-N-(4-methoxyphenyl)-1H-pyrrole-2-carboxamide] as the compound, how does the EC50 read?
**A.** The EC50 was > 30 µM.

tested on: PV-1; test: microbe, parasite or virus in culture; assay type: cell-based, poliovirus 1; conditions: Enterovirus C, HeLa R19, read-out: EC50 PV-1

**Q.** For `COc1ccc(N(Cc2ccc(F)cc2)C(=O)c2ccc[nH]2)cc1` [Compound 5c, N-(4-fluorobenzyl)-N-(4-methoxyphenyl)-1H-pyrrole-2-carboxamide], which EC50 is on record?
**A.** The EC50 was > 30 µM.

tested on: not listed separately; test: in vitro; conditions: monkey, CC50

**Q.** Which CC50 does the source give for `COc1ccc(N(Cc2ccc(F)cc2)C(=O)c2ccc[nH]2)cc1` [Compound 5c, N-(4-fluorobenzyl)-N-(4-methoxyphenyl)-1H-pyrrole-2-carboxamide] here?
**A.** The CC50 was > 100 µM.

same assay, conditions: monkey, CC50 BGM Average

**Q.** For `COc1ccc(N(Cc2ccc(F)cc2)C(=O)c2ccc[nH]2)cc1` [Compound 5c, N-(4-fluorobenzyl)-N-(4-methoxyphenyl)-1H-pyrrole-2-carboxamide], which CC50 is on record?
**A.** Its CC50 is 56 µM.

same assay, conditions: monkey, Exp 1 CC50 BGM

**Q.** Which CC50 does the source give for `COc1ccc(N(Cc2ccc(F)cc2)C(=O)c2ccc[nH]2)cc1` [Compound 5c, N-(4-fluorobenzyl)-N-(4-methoxyphenyl)-1H-pyrrole-2-carboxamide] here?
**A.** The CC50 was 58 µM.

same assay, conditions: monkey, Exp 2 CC50 BGM

**Q.** With `COc1ccc(N(Cc2ccc(F)cc2)C(=O)c2ccc[nH]2)cc1` [Compound 5c, N-(4-fluorobenzyl)-N-(4-methoxyphenyl)-1H-pyrrole-2-carboxamide] as the compound, how does the CC50 read?
**A.** The CC50 was 54 µM.

tested on: CV-B3; test: microbe, parasite or virus in culture; assay type: cell-based, coxsackievirus B3; conditions: Enterovirus B, CVB3, BGM, read-out: EC50 BGM Average

**Q.** For `COc1ccc(N(Cc2ccc(F)cc2)C(=O)c2ccc[nH]2)cc1` [Compound 5c, N-(4-fluorobenzyl)-N-(4-methoxyphenyl)-1H-pyrrole-2-carboxamide], which EC50 is on record?
**A.** The EC50 was 4.18 µM.

same assay, conditions: Enterovirus B, CVB3, BGM, read-out: Exp 1 EC50 BGM

**Q.** For `COc1ccc(N(Cc2ccc(F)cc2)C(=O)c2ccc[nH]2)cc1` [Compound 5c, N-(4-fluorobenzyl)-N-(4-methoxyphenyl)-1H-pyrrole-2-carboxamide], which EC50 is on record?
**A.** The EC50 was 3.86 µM.

same assay, conditions: Enterovirus B, CVB3, BGM, read-out: Exp 2 EC50 BGM

**Q.** Which EC50 does the source give for `COc1ccc(N(Cc2ccc(F)cc2)C(=O)c2ccc[nH]2)cc1` [Compound 5c, N-(4-fluorobenzyl)-N-(4-methoxyphenyl)-1H-pyrrole-2-carboxamide] here?
**A.** Its EC50 is 4.5 µM.

tested on: EV-D68; test: microbe, parasite or virus in culture; assay type: cell-based, enterovirus D68; conditions: Enterovirus D, EVD68, HeLa R19, read-out: EC50 EV-D68

**Q.** Which EC50 does the source give for `COc1ccc(N(Cc2ccc(F)cc2)C(=O)c2ccc[nH]2)cc1` [Compound 5c, N-(4-fluorobenzyl)-N-(4-methoxyphenyl)-1H-pyrrole-2-carboxamide] here?
**A.** The EC50 was 3.47 ± 0.08 µM.

same assay, conditions: Enterovirus D, EVD68, HeLa R19, read-out: EC50 Exp1

**Q.** Which EC50 does the source give for `COc1ccc(N(Cc2ccc(F)cc2)C(=O)c2ccc[nH]2)cc1` [Compound 5c, N-(4-fluorobenzyl)-N-(4-methoxyphenyl)-1H-pyrrole-2-carboxamide] here?
**A.** Its EC50 is 3.39 µM.

same assay, conditions: Enterovirus D, EVD68, HeLa R19, read-out: EC50 Exp2

**Q.** Which EC50 does the source give for `COc1ccc(N(Cc2ccc(F)cc2)C(=O)c2ccc[nH]2)cc1` [Compound 5c, N-(4-fluorobenzyl)-N-(4-methoxyphenyl)-1H-pyrrole-2-carboxamide] here?
**A.** Its EC50 is 3.54 µM.

tested on: EV-A71; test: microbe, parasite or virus in culture; assay type: cell-based, enterovirus A71; conditions: Enterovirus A, EVA71, HeLa R19, read-out: EC50 EV-A71

**Q.** With `COc1ccc(N(Cc2ccc(F)cc2)C(=O)c2ccc[nH]2)cc1` [Compound 5c, N-(4-fluorobenzyl)-N-(4-methoxyphenyl)-1H-pyrrole-2-carboxamide] as the compound, how does the EC50 read?
**A.** Its EC50 is > 30 µM.

tested on: HRV-B14; test: microbe, parasite or virus in culture; assay type: cell-based, human rhinovirus; conditions: Human rhinovirus sp., HRVB14, HeLa R19, read-out: EC50 HRV-B14

**Q.** Which EC50 does the source give for `COc1ccc(N(Cc2ccc(F)cc2)C(=O)c2ccc[nH]2)cc1` [Compound 5c, N-(4-fluorobenzyl)-N-(4-methoxyphenyl)-1H-pyrrole-2-carboxamide] here?
**A.** Its EC50 is > 30 µM.

tested on: not listed separately; test: in vitro; conditions: human, CC50 Average

**Q.** With `COc1ccc(N(Cc2ccc(F)cc2)C(=O)c2ccc[nH]2)cc1` [Compound 5c, N-(4-fluorobenzyl)-N-(4-methoxyphenyl)-1H-pyrrole-2-carboxamide] as the compound, how does the CC50 read?
**A.** The CC50 was > 30 µM.

same assay, conditions: human, CC50 HelaR19 Average

**Q.** With `COc1ccc(N(Cc2ccc(F)cc2)C(=O)c2ccc[nH]2)cc1` [Compound 5c, N-(4-fluorobenzyl)-N-(4-methoxyphenyl)-1H-pyrrole-2-carboxamide] as the compound, how does the CC50 read?
**A.** The CC50 was > 100 µM.

same assay, conditions: human, Exp 1 CC50

**Q.** Which CC50 does the source give for `COc1ccc(N(Cc2ccc(F)cc2)C(=O)c2ccc[nH]2)cc1` [Compound 5c, N-(4-fluorobenzyl)-N-(4-methoxyphenyl)-1H-pyrrole-2-carboxamide] here?
**A.** Its CC50 is > 30 µM.

same assay, conditions: human, Exp 1 CC50 HelaR19

**Q.** With `COc1ccc(N(Cc2ccc(F)cc2)C(=O)c2ccc[nH]2)cc1` [Compound 5c, N-(4-fluorobenzyl)-N-(4-methoxyphenyl)-1H-pyrrole-2-carboxamide] as the compound, how does the CC50 read?
**A.** The CC50 was > 100 µM.

same assay, conditions: human, Exp2 CC50

**Q.** With `COc1ccc(N(Cc2ccc(F)cc2)C(=O)c2ccc[nH]2)cc1` [Compound 5c, N-(4-fluorobenzyl)-N-(4-methoxyphenyl)-1H-pyrrole-2-carboxamide] as the compound, how does the CC50 read?
**A.** Its CC50 is > 30 µM.

same assay, conditions: human, Exp 2 CC50 HelaR19

**Q.** With `COc1ccc(N(Cc2ccc(F)cc2)C(=O)c2ccc[nH]2)cc1` [Compound 5c, N-(4-fluorobenzyl)-N-(4-methoxyphenyl)-1H-pyrrole-2-carboxamide] as the compound, how does the CC50 read?
**A.** The CC50 was > 100 µM.

tested on: HeLa R19 cells; test: not given; conditions: not given

**Q.** For `COc1ccc(N(Cc2ccc(F)cc2)C(=O)c2ccc[nH]2)cc1` [Compound 5c, N-(4-fluorobenzyl)-N-(4-methoxyphenyl)-1H-pyrrole-2-carboxamide], which “cytotoxicity (in words)” value is on record?
**A.** The value was “no cytotoxicity”.

tested on: not listed separately; test: in vitro; conditions: human, CC50

**Q.** For `COc1ccc(N(Cc2ccc(F)cc2)C(=O)c2ccc[nH]2)cc1` [Compound 5c, N-(4-fluorobenzyl)-N-(4-methoxyphenyl)-1H-pyrrole-2-carboxamide], which CC50 is on record?
**A.** Its CC50 is > 100 µM.

same assay, conditions: human, CC50 Hap1 Average

**Q.** For `COc1ccc(N(Cc2ccc(F)cc2)C(=O)c2ccc[nH]2)cc1` [Compound 5c, N-(4-fluorobenzyl)-N-(4-methoxyphenyl)-1H-pyrrole-2-carboxamide], which CC50 is on record?
**A.** Its CC50 is > 100 µM.

same assay, conditions: human, Exp 1 CC50 Hap1

**Q.** Which CC50 does the source give for `COc1ccc(N(Cc2ccc(F)cc2)C(=O)c2ccc[nH]2)cc1` [Compound 5c, N-(4-fluorobenzyl)-N-(4-methoxyphenyl)-1H-pyrrole-2-carboxamide] here?
**A.** Its CC50 is > 100 µM.

same assay, conditions: human, Exp 2 CC50 Hap1

**Q.** For `COc1ccc(N(Cc2ccc(F)cc2)C(=O)c2ccc[nH]2)cc1` [Compound 5c, N-(4-fluorobenzyl)-N-(4-methoxyphenyl)-1H-pyrrole-2-carboxamide], which CC50 is on record?
**A.** The CC50 was > 100 µM.
